Laboratory results from US20240415914A1, “Water Dispersible Cannabinoid Compositions” (priority 2021, published 2024).
Read-outs that look alike come from different tables or passages of the source.

Experiments:
[1] = format: physicochemical; details: stored at room temperature (21-25° C.)
Protocol: At each time period, 0.05 g of powder was dissolved in 10 ml-15 of ethanol, diluted to fall within the analytical range, and injected into the LCMSMS for analysis.

[2] = Stability of cannabinoid and Vitamin E components of Beverage 2 (AB Red) stored at 8° C. and 21-25° C., LCMSMS over 570 days
Protocol: The LCMSMS was calibrated for 0-50 ng/ml cannabinoids with the same resin material used in the preparation of the concentrates. At each time period, 100 μml of beverage was diluted with 10 ml of methanol and injected into the LCMSMS for analysis.

CCCCCc1cc(O)c2c(c1)OC1(C)CCC3C1C2C3(C)C (stereo not shown) [CBL, cannabicyclol]
Stability in Powder Concentrate (content by LCMSMS) ([1]; day 0): 0.050 mg/g powder | Stability in Powder Concentrate (content by LCMSMS) ([1]; day 1): 0.051 mg/g powder | Stability in Powder Concentrate (content by LCMSMS) ([1]; day 2): 0.049 mg/g powder | Stability in Powder Concentrate (content by LCMSMS) ([1]; day 3): 0.050 mg/g powder | Stability in Powder Concentrate (content by LCMSMS) ([1]; day 5): 0.052 mg/g powder | Stability in Powder Concentrate (content by LCMSMS) ([1]; day 8): 0.050 mg/g powder | Stability in Powder Concentrate (content by LCMSMS) ([1]; day 9): 0.050 mg/g powder | Stability in Powder Concentrate (content by LCMSMS) ([1]; day 10): 0.050 mg/g powder | Stability in Powder Concentrate (content by LCMSMS) ([1]; day 11): 0.052 mg/g powder | Stability in Powder Concentrate (content by LCMSMS) ([1]; day 12): 0.052 mg/g powder | Stability in Powder Concentrate (content by LCMSMS) ([1]; day 15): 0.048 mg/g powder | Stability in Powder Concentrate (content by LCMSMS) ([1]; day 16): 0.049 mg/g powder | Stability in Powder Concentrate (content by LCMSMS) ([1]; day 17): 0.049 mg/g powder | Stability in Powder Concentrate (content by LCMSMS) ([1]; day 18): 0.052 mg/g powder | Stability in Powder Concentrate (content by LCMSMS) ([1]; day 19): 0.052 mg/g powder | Stability in Powder Concentrate (content by LCMSMS) ([1]; day 22): 0.051 mg/g powder | Stability in Powder Concentrate (content by LCMSMS) ([1]; day 23): 0.051 mg/g powder | Stability in Powder Concentrate (content by LCMSMS) ([1]; day 24): 0.050 mg/g powder | Stability in Powder Concentrate (content by LCMSMS) ([1]; day 25): 0.050 mg/g powder | Stability in Powder Concentrate (content by LCMSMS) ([1]; day 26): 0.051 mg/g powder | Stability in Powder Concentrate (content by LCMSMS) ([1]; day 29): 0.048 mg/g powder | Stability in Powder Concentrate (content by LCMSMS) ([1]; day 30): 0.051 mg/g powder | Stability in Powder Concentrate (content by LCMSMS) ([1]; day 60): 0.050 mg/g powder | Stability in Powder Concentrate (content by LCMSMS) ([1]; day 90): 0.050 mg/g powder | Stability in Powder Concentrate (content by LCMSMS) ([1]; day 120): 0.048 mg/g powder | Stability in Powder Concentrate (content by LCMSMS) ([1]; day 150): 0.050 mg/g powder | Stability in Powder Concentrate (content by LCMSMS) ([1]; day 180): 0.049 mg/g powder | Stability in Powder Concentrate (content by LCMSMS) ([1]; day 210): 0.052 mg/g powder | Stability in Powder Concentrate (content by LCMSMS) ([1]; day 240): 0.049 mg/g powder | Stability in Powder Concentrate (content by LCMSMS) ([1]; day 270): 0.051 mg/g powder | Stability in Powder Concentrate (content by LCMSMS) ([1]; day 300): 0.050 mg/g powder | Stability in Powder Concentrate (content by LCMSMS) ([1]; day 330): 0.049 mg/g powder | Stability in Powder Concentrate (content by LCMSMS) ([1]; day 360): 0.050 mg/g powder | Stability in Powder Concentrate (content by LCMSMS) ([1]; day 390): 0.052 mg/g powder | Stability in Powder Concentrate (content by LCMSMS) ([1]; day 420): 0.050 mg/g powder | Stability in Powder Concentrate (content by LCMSMS) ([1]; day 450): 0.052 mg/g powder | Stability in Powder Concentrate (content by LCMSMS) ([1]; day 480): 0.051 mg/g powder | Stability in Powder Concentrate (content by LCMSMS) ([1]; day 510): 0.050 mg/g powder | Stability in Powder Concentrate (content by LCMSMS) ([1]; day 540): 0.048 mg/g powder | Stability in Powder Concentrate (content by LCMSMS) ([1]; day 570): 0.050 mg/g powder | Stability of Cannabinoids in AB Red ([2]; 8° C., 0 days): 0.510 µg/mL | Stability of Cannabinoids in AB Red ([2]; 8° C., 1 days): 0.512 µg/mL | Stability of Cannabinoids in AB Red ([2]; 8° C., 2 days): 0.508 µg/mL | Stability of Cannabinoids in AB Red ([2]; 8° C., 3 days): 0.499 µg/mL | Stability of Cannabinoids in AB Red ([2]; 8° C., 5 days): 0.501 µg/mL | Stability of Cannabinoids in AB Red ([2]; 8° C., 8 days): 0.496 µg/mL | Stability of Cannabinoids in AB Red ([2]; 8° C., 9 days): 0.496 µg/mL | Stability of Cannabinoids in AB Red ([2]; 8° C., 10 days): 0.505 µg/mL | Stability of Cannabinoids in AB Red ([2]; 8° C., 11 days): 0.501 µg/mL | Stability of Cannabinoids in AB Red ([2]; 8° C., 12 days): 0.499 µg/mL | Stability of Cannabinoids in AB Red ([2]; 8° C., 15 days): 0.510 µg/mL | Stability of Cannabinoids in AB Red ([2]; 8° C., 16 days): 0.502 µg/mL | Stability of Cannabinoids in AB Red ([2]; 8° C., 17 days): 0.514 µg/mL | Stability of Cannabinoids in AB Red ([2]; 8° C., 18 days): 0.513 µg/mL | Stability of Cannabinoids in AB Red ([2]; 8° C., 19 days): 0.510 µg/mL | Stability of Cannabinoids in AB Red ([2]; 8° C., 22 days): 0.495 µg/mL | Stability of Cannabinoids in AB Red ([2]; 8° C., 23 days): 0.502 µg/mL | Stability of Cannabinoids in AB Red ([2]; 8° C., 24 days): 0.508 µg/mL | Stability of Cannabinoids in AB Red ([2]; 8° C., 25 days): 0.510 µg/mL | Stability of Cannabinoids in AB Red ([2]; 8° C., 26 days): 0.502 µg/mL | Stability of Cannabinoids in AB Red ([2]; 8° C., 29 days): 0.511 µg/mL | Stability of Cannabinoids in AB Red ([2]; 8° C., 30 days): 0.511 µg/mL | Stability of Cannabinoids in AB Red ([2]; 8° C., 60 days): 0.491 µg/mL | Stability of Cannabinoids in AB Red ([2]; 8° C., 90 days): 0.501 µg/mL | Stability of Cannabinoids in AB Red ([2]; 8° C., 120 days): 0.488 µg/mL | Stability of Cannabinoids in AB Red ([2]; 8° C., 150 days): 0.501 µg/mL | Stability of Cannabinoids in AB Red ([2]; 8° C., 180 days): 0.506 µg/mL | Stability of Cannabinoids in AB Red ([2]; 8° C., 210 days): 0.490 µg/mL | Stability of Cannabinoids in AB Red ([2]; 8° C., 240 days): 0.490 µg/mL | Stability of Cannabinoids in AB Red ([2]; 8° C., 270 days): 0.504 µg/mL | Stability of Cannabinoids in AB Red ([2]; 8° C., 300 days): 0.489 µg/mL | Stability of Cannabinoids in AB Red ([2]; 8° C., 330 days): 0.505 µg/mL | Stability of Cannabinoids in AB Red ([2]; 8° C., 390 days): 0.491 µg/mL | Stability of Cannabinoids in AB Red ([2]; 8° C., 420 days): 0.494 µg/mL | Stability of Cannabinoids in AB Red ([2]; 8° C., 450 days): 0.492 µg/mL | Stability of Cannabinoids in AB Red ([2]; 8° C., 480 days): 0.487 µg/mL | Stability of Cannabinoids in AB Red ([2]; 8° C., 510 days): 0.468 µg/mL | Stability of Cannabinoids in AB Red ([2]; 8° C., 540 days): 0.470 µg/mL | Stability of Cannabinoids in AB Red ([2]; 8° C., 570 days): 0.469 µg/mL | Stability of Cannabinoids in AB Red ([2]; 21-25° C., 0 days): 0.51 µg/mL | Stability of Cannabinoids in AB Red ([2]; 21-25° C., 1 days): 0.50 µg/mL | Stability of Cannabinoids in AB Red ([2]; 21-25° C., 2 days): 0.50 µg/mL | Stability of Cannabinoids in AB Red ([2]; 21-25° C., 3 days): 0.50 µg/mL | Stability of Cannabinoids in AB Red ([2]; 21-25° C., 5 days): 0.51 µg/mL | Stability of Cannabinoids in AB Red ([2]; 21-25° C., 8 days): 0.50 µg/mL | Stability of Cannabinoids in AB Red ([2]; 21-25° C., 9 days): 0.51 µg/mL | Stability of Cannabinoids in AB Red ([2]; 21-25° C., 10 days): 0.50 µg/mL | Stability of Cannabinoids in AB Red ([2]; 21-25° C., 11 days): 0.50 µg/mL | Stability of Cannabinoids in AB Red ([2]; 21-25° C., 12 days): 0.50 µg/mL | Stability of Cannabinoids in AB Red ([2]; 21-25° C., 15 days): 0.50 µg/mL | Stability of Cannabinoids in AB Red ([2]; 21-25° C., 16 days): 0.51 µg/mL | Stability of Cannabinoids in AB Red ([2]; 21-25° C., 17 days): 0.51 µg/mL | Stability of Cannabinoids in AB Red ([2]; 21-25° C., 18 days): 0.50 µg/mL | Stability of Cannabinoids in AB Red ([2]; 21-25° C., 19 days): 0.49 µg/mL | Stability of Cannabinoids in AB Red ([2]; 21-25° C., 22 days): 0.49 µg/mL | Stability of Cannabinoids in AB Red ([2]; 21-25° C., 23 days): 0.51 µg/mL | Stability of Cannabinoids in AB Red ([2]; 21-25° C., 24 days): 0.50 µg/mL | Stability of Cannabinoids in AB Red ([2]; 21-25° C., 25 days): 0.51 µg/mL | Stability of Cannabinoids in AB Red ([2]; 21-25° C., 26 days): 0.51 µg/mL | Stability of Cannabinoids in AB Red ([2]; 21-25° C., 29 days): 0.49 µg/mL | Stability of Cannabinoids in AB Red ([2]; 21-25° C., 30 days): 0.51 µg/mL | Stability of Cannabinoids in AB Red ([2]; 21-25° C., 60 days): 0.50 µg/mL | Stability of Cannabinoids in AB Red ([2]; 21-25° C., 90 days): 0.49 µg/mL | Stability of Cannabinoids in AB Red ([2]; 21-25° C., 120 days): 0.50 µg/mL | Stability of Cannabinoids in AB Red ([2]; 21-25° C., 150 days): 0.49 µg/mL | Stability of Cannabinoids in AB Red ([2]; 21-25° C., 180 days): 0.50 µg/mL | Stability of Cannabinoids in AB Red ([2]; 21-25° C., 210 days): 0.49 µg/mL | Stability of Cannabinoids in AB Red ([2]; 21-25° C., 240 days): 0.49 µg/mL | Stability of Cannabinoids in AB Red ([2]; 21-25° C., 270 days): 0.49 µg/mL | Stability of Cannabinoids in AB Red ([2]; 21-25° C., 300 days): 0.50 µg/mL | Stability of Cannabinoids in AB Red ([2]; 21-25° C., 330 days): 0.50 µg/mL | Stability of Cannabinoids in AB Red ([2]; 21-25° C., 390 days): 0.49 µg/mL | Stability of Cannabinoids in AB Red ([2]; 21-25° C., 420 days): 0.48 µg/mL | Stability of Cannabinoids in AB Red ([2]; 21-25° C., 450 days): 0.49 µg/mL | Stability of Cannabinoids in AB Red ([2]; 21-25° C., 480 days): 0.48 µg/mL | Stability of Cannabinoids in AB Red ([2]; 21-25° C., 510 days): 0.47 µg/mL | Stability of Cannabinoids in AB Red ([2]; 21-25° C., 540 days): 0.47 µg/mL | Stability of Cannabinoids in AB Red ([2]; 21-25° C., 570 days): 0.47 µg/mL
